Holding throughout (format): cell-based
The subject of one data set is BI-1 (TMBIM6). Kind of data set: TMBIM6-GCaMP3 fluorescence, calcium released through BI-1. The settings on record: 10 μM, compared with DMSO control.
The nature of data set [1]: Cell viability for BIA and analogues, HT1080 cell line. Conditions: human, HT1080 fibrosarcoma cells; for viability at 5 µM: HT1080, 5 uM; for viability at 10 µM: HT1080, 10 uM. On the procedure:
HT1080 MDA-MB-231, SKBR3 and MCF7 cell lines were cultured in a 37° C., 5% CO2 incubator in a medium with 10% Fetal Bovine Serum, 1% penicillin and streptomycin (100 U) added to DMEM.
(§1) The compound prepared in Example 15 was treated with HT1080 fibrosarcoma cell line at 5 μM and 10 μM and cell viability was measured. In addition, the compound prepared in Example 15 on the DU145 prostate cancer cell line was treated with 10 μM, 20 μM, and 30 μM and cell viability was measured (see Table 2, Table 3).

The nature of data set [2]: Cell viability for BIA and analogues, DU145 cell line. The settings on record: human; for viability at 10 µM: DU145, 10 uM; for viability at 20 µM: DU145, 20 uM; for viability: DU145, 50 rpm. On the procedure:
as §1

The record followed here is US20240139125A1 (INDUSTRIAL COOPERATION FOUNDATION JEONBUK NATIONAL …, priority 2020, published 2024).

One may read the viability as a read-out of living cells in per cent, often relative to untreated cells. Take `Nc1ccccc1C(=O)/C=C/c1cccc(F)c1` [GM-90318, (E)-1-(2-aminophenyl)-3-(3-fluorophenyl)prop-2-en-1-one]: the “inhibition of calcium release through BI-1 (TMBIM6-GCaMP3 fluorescence)” value in the data set with BI-1 (TMBIM6) was “stronger inhibitory effect”. In addition, in data set [1], the viability at 5 µM came out at 21.4% and the viability at 10 µM was 11.8%.

`N/C(=N\O)c1cccc(/C=C/C(=O)c2ccccc2N)c1` [GM-90338, (Z)-3-((E)-3-(2-aminophenyl)-3-oxoprop-1-en-1-yl)-N′-hydroxy Benzimidamide]: in the data set with BI-1 (TMBIM6), the “inhibition of calcium release through BI-1 (TMBIM6-GCaMP3 fluorescence)” value is “stronger inhibitory effect”. Further, in data set [1], the viability at 5 µM was found to be 44.7% and the viability at 10 µM stood at 10.5%. Moreover, in data set [2], the viability at 10 µM turned out to be 42.8%, the viability at 20 µM stood at 31.9% and the viability amounted to 11.1%.

Consider `Nc1ccccc1C(=O)/C=C/c1cccc(C(=O)O)c1` [GM-90296, (E)-3-(3-(2-aminophenyl)-3-oxoprop-1-en-1-yl)benzoic acid], for which the “inhibition of calcium release through BI-1 (TMBIM6-GCaMP3 fluorescence)” value in the data set with BI-1 (TMBIM6) is listed as “stronger inhibitory effect”. Further, in data set [1], the viability at 5 µM came out at 107% and the viability at 10 µM was 91.6%. For the same compound, in data set [2], the viability at 10 µM came to 91%, the viability at 20 µM was found to be 82.3% and the viability is 76.9%.

Consider `COc1cc(N)c(C(=O)/C=C/c2cccc(C(F)(F)F)c2)cc1OC` [GM-90320, (E)-1-(2-amino-4,5-dimethoxyphenyl)-3-(3-(trifluoromethyl)phenyl)prop-2-en-1-one], for which, in data set [1], the viability at 5 µM is 94.5% and the viability at 10 µM stood at 62.7%. In addition, in data set [2], the viability at 10 µM came to 89.1%, the viability at 20 µM was determined as 89.1% and the viability is 82.4%.

As to `CCOc1cccc(/C=C/C(=O)c2ccccc2N)c1` [GM-90295, (E)-1-(2-aminophenyl)-3-(3-ethoxyphenyl)prop-2-en-1-one], the “inhibition of calcium release through BI-1 (TMBIM6-GCaMP3 fluorescence)” value in the data set on BI-1 (TMBIM6) was “stronger inhibitory effect”. Moreover, in data set [1], the viability at 5 µM was determined as 103% and the viability at 10 µM turned out to be 82.4%. Besides, in data set [2], the viability at 10 µM stood at 91.7%, the viability at 20 µM was found to be 86.7% and the viability is 84.7%.

On to `Nc1ccc(F)cc1C(=O)/C=C/c1cccc([N+](=O)[O-])c1` [GM-90298, (E)-1-(2-amino-5-fluorophenyl)-3-(3-nitrophenyl)prop-2-en-1-one], for which, in the data set with BI-1 (TMBIM6), the “inhibition of calcium release through BI-1 (TMBIM6-GCaMP3 fluorescence)” value is “stronger inhibitory effect”. For the same compound, in data set [1], the viability at 5 µM turned out to be 21.2% and the viability at 10 µM is 19%. Moreover, in data set [2], the viability at 10 µM is 68.9%, the viability at 20 µM was found to be 62.3% and the viability turned out to be 48.7%.

For the compound `Nc1ccccc1-c1cc(-c2cccc(C(F)(F)F)c2)ncn1`, in data set [1], the viability at 5 µM stood at 99.6% and the viability at 10 µM was 97.3%. Moreover, in data set [2], the viability at 10 µM was found to be 95.3%, the viability at 20 µM is 87.8% and the viability turned out to be 74.8%.

Consider `CC(C)(C)c1ccc(/C=C/C(=O)c2ccccc2N)cc1` [GM-90243, (E)-1-(2-aminophenyl)-3-(4-(tert-butyl)phenyl)prop-2-en-1-one], for which, in data set [1], the viability at 5 µM came to 66.8% and the viability at 10 µM turned out to be 39.2%. Moreover, in data set [2], the viability at 10 µM was found to be 31.8%, the viability at 20 µM stood at 28.2% and the viability is 14.3%.

`Nc1ccccc1C(=O)/C=C/c1cccc(C(F)(F)F)c1` [GM-90283, (E)-1-(2-aminophenyl)-3-(3-(trifluoromethyl)phenyl)prop-2-en-1-one]: in data set [1], the viability at 5 µM came to 18.1% and the viability at 10 µM turned out to be 11.9%. Besides, in data set [2], the viability at 10 µM was determined as 59.9%, the viability at 20 µM amounted to 33.1% and the viability came to 22.9%.

In the case of `Nc1ccccc1-c1cc(-c2cccc(C(F)(F)F)c2)on1` [GM-90340, 2-(5-(3-(trifluoromethyl)phenyl)isoxazol-3-yl)aniline], in data set [1], the viability at 5 µM is 88.7% and the viability at 10 µM amounted to 80.2%. In addition, in data set [2], the viability at 10 µM is 92.9%, the viability at 20 µM stood at 89.3% and the viability is 76.1%.

For the compound `CCOc1ccc([N+](=O)[O-])cc1/C=C/C(=O)c1ccccc1N` [GM-90229, (E)-1-(2-aminophenyl)-3-(2-ethoxy-5-nitrophenyl)prop-2-en-1-one], in data set [1], the viability at 5 µM worked out at 64.4% and the viability at 10 µM was determined as 15.7%. For the same compound, in data set [2], the viability at 10 µM came out at 53.1%, the viability at 20 µM came out at 40.5% and the viability came out at 21.1%.

For the compound `COc1cccc(/C=C/C(=O)c2cc(OC)c(OC)cc2N)c1` [GM-90256, (E)-1-(2-amino-4,5-dimethoxyphenyl)-3-(3-methoxyphenyl)prop-2-en-1-one], in data set [1], the viability at 5 µM is 82.4% and the viability at 10 µM is 46.3%. In addition, in data set [2], the viability at 10 µM was 76.3%, the viability at 20 µM came out at 60.2% and the viability stood at 54.9%.

Regarding `CCOc1cc(F)ccc1/C=C/C(=O)c1ccccc1N` [GM-90224, (E)-1-(2-aminophenyl)-3-(2-ethoxy-4-fluorophenyl)prop-2-en-1-one], in data set [1], the viability at 5 µM was 108% and the viability at 10 µM came to 99.7%. In addition, in data set [2], the viability at 10 µM stood at 90.5%, the viability at 20 µM amounted to 90% and the viability was found to be 75.8%.

Take `COc1ccc(C(=O)/C=C/c2cccc([N+](=O)[O-])c2)c(N)c1` [GM-90297, (E)-1-(2-amino-4-methoxyphenyl)-3-(3-nitrophenyl)prop-2-en-1-one]: in data set [1], the viability at 5 µM worked out at 93.3% and the viability at 10 µM turned out to be 18.2%. For the same compound, in data set [2], the viability at 10 µM is 85.7%, the viability at 20 µM was 87.2% and the viability amounted to 83%.

For the compound `COc1cc(N)c(C(=O)/C=C/c2cc(O)cc(Br)c2)cc1OC` [GM-90321, (E)-1-(2-amino-4,5-dimethoxyphenyl)-3-(3-bromo-5-hydroxyphenyl)prop-2-en-1-one], in data set [1], the viability at 5 µM was determined as 61.2% and the viability at 10 µM stood at 21.2%. For the same compound, in data set [2], the viability at 10 µM came to 83.6%, the viability at 20 µM came to 81.8% and the viability came to 84.8%.

As for `Nc1ccccc1C(=O)/C=C/c1cccc(Cl)c1` [GM-90317, (E)-1-(2-aminophenyl)-3-(3-chlorophenyl)prop-2-en-1-one], in data set [1], the viability at 5 µM is 46.8% and the viability at 10 µM came to 14.4%. For the same compound, in data set [2], the viability at 10 µM is 32.4%, the viability at 20 µM is 28.1% and the viability came out at 11.9%.

In the case of `Cc1cccc(/C=C/C(=O)c2ccccc2N)c1` [GM-90284, (E)-1-(2-aminophenyl)-3-(m-tolyl)prop-2-en-1-one], in data set [1], the viability at 5 µM was 86.4% and the viability at 10 µM worked out at 18.8%. Also, in data set [2], the viability at 10 µM was determined as 88.4%, the viability at 20 µM worked out at 81% and the viability was found to be 79%.

For the compound `Nc1ccccc1C(=O)/C=C/c1cccc(Br)c1` [GM-90132, (E)-1-(2-aminophenyl)-3-(3-bromophenyl)prop-2-en-1-one], in data set [1], the viability at 5 µM was determined as 100% and the viability at 10 µM stood at 30.9%. Moreover, in data set [2], the viability at 10 µM amounted to 81.5%, the viability at 20 µM was determined as 71.2% and the viability turned out to be 19.9%.
